Earlier results in patent US12318448B2, “Use of TLR agonist and anti-CD47 agent to enhance phagocytosis of cancer cells” (The Board of Trustees of the Leland Stanford Junior …, priority 2015, dated 2025).

Target: T1, TLR7 (Homo sapiens, UniProt Q9NYK1)
T1 sequence (Q9NYK1 27-1049): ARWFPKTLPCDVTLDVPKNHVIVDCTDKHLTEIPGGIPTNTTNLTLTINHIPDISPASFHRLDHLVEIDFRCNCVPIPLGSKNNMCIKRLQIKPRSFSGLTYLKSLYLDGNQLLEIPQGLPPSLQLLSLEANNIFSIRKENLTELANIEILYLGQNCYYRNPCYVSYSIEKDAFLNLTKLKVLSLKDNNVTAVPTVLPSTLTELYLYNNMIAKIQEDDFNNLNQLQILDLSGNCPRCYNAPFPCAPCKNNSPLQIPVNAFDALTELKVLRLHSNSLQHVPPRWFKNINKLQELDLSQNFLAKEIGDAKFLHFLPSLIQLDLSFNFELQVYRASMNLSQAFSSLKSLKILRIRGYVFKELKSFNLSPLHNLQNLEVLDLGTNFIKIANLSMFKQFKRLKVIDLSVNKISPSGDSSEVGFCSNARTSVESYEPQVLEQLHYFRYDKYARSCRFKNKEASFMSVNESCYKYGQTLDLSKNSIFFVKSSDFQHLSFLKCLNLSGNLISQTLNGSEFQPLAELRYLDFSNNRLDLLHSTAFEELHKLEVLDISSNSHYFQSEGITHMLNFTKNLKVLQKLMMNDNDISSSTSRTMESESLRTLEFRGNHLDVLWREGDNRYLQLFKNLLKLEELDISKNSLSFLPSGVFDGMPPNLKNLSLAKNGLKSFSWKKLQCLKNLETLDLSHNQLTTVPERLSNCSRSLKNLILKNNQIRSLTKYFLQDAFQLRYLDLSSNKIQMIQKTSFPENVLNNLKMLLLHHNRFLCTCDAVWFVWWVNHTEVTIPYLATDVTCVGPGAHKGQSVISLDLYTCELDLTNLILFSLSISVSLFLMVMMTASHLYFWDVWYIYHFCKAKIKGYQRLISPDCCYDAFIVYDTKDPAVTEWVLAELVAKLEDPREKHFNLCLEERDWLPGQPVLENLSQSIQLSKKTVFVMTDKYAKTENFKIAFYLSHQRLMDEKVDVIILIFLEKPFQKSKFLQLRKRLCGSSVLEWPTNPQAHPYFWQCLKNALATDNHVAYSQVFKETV
Conditions: administered parenterally as monotherapy; cited from earlier work

SMILES: CCc1nc2c(N)nc3ccccc3c2n1CCCCNS(C)(=O)=O [852A]
- clinical efficacy: modest clinical efficacy with disease stabilization
